# Source: patent US8143290B2, “Chemical compounds 572” (AstraZeneca AB, priority 2006, dated 2012)
# Molecular target: T1, recombinant human GR (Homo sapiens, UniProt P04150)
# T1 construct: purchased Panvera/Invitrogen P2812 (kit P2893)
# T1 sequence (P04150 1-777): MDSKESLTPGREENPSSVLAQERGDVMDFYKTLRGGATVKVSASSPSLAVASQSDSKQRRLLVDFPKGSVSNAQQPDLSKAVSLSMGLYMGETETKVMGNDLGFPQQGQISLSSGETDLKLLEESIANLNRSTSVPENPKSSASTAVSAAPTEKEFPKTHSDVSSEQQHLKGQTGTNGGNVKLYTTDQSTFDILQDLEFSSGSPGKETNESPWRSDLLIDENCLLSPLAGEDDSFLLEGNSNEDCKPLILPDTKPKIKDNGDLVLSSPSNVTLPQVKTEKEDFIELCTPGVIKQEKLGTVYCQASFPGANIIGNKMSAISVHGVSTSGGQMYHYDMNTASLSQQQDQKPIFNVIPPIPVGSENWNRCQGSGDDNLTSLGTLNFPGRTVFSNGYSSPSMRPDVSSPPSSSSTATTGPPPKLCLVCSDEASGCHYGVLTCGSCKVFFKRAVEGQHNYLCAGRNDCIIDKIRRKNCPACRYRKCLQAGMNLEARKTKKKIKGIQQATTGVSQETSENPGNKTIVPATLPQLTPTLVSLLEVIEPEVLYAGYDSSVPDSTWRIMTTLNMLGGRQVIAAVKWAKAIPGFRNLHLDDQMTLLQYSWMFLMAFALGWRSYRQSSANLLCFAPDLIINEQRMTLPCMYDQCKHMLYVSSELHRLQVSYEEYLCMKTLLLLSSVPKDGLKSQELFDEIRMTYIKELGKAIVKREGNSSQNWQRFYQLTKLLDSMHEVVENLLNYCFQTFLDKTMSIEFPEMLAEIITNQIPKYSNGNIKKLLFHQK
# Test: Human Glucocorticoid Receptor (GR) Assay, fluorescence polarization
# Type: binding
# Conditions: GS Red tracer, incubated 2 h at r.t., XLfit model 205, read-out: GRhuFL_FP_v2 Mean IC50
# In short: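 After 2 h dark incubation at r.t., polarization reported displacement of the GS Red tracer from recombinant GR, in buffer with phosphate, molybdate, EDTA, DTT and Stabilizing Peptide. Controls: dexamethasone (100%) and DMSO (0%).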
row,Compound,IC50 [nM]
1,"Cc1c(F)cccc1[C@@H](Oc1ccc2c(cnn2-c2ccc(F)cc2)c1)[C@H](C)NC(=O)C(F)(F)F [Example 167, 2,2,2-trifluoro-N-[(1R,2S)-1-(3-fluoro-2-methyl-phenyl)-1-[1-(4-fluorophenyl)indazol-5-yl]oxy-propan-2-yl]acetamide]",8.6
2,"C[C@H](NC(=O)C(C)(C)C)[C@H](Oc1ccc2c(cnn2-c2ccc(F)cc2)c1)c1cccc(F)c1 [Example 174, N-[(1R,2S)-1-(3-fluorophenyl)-1-[1-(4-fluorophenyl)indazol-5-yl]oxy-propan-2-yl]-2,2-dimethyl-propanamide]",4.1
3,"Cc1ccc([C@@H](Oc2ccc3c(cnn3-c3ccc(F)cc3)c2)[C@H](C)NC(=O)C(C)(C)C)cc1C [Example 171, N-[(1R,2S)-1-(3,4-dimethylphenyl)-1-[1-(4-fluorophenyl)indazol-5-yl]oxy-propan-2-yl]-2,2-dimethyl-propanamide]",5.6
4,"C[C@H](NC(=O)C1CCC1)[C@H](Oc1ccc2c(cnn2-c2ccc(F)cc2)c1)c1ccccc1 [Example 43, N-[(1R,2S)-1-[1-(4-fluorophenyl)indazol-5-yl]oxy-1-phenyl-propan-2-yl]cyclobutanecarboxamide]",2.2
5,"C[C@H](NC(=O)C(C)(C)C)[C@H](Oc1ccc2c(cnn2-c2ccc(F)cc2)c1)c1ccc(C(C)(C)C)cc1 [Example 186, N-[(1R,2S)-1-[1-(4-fluorophenyl)indazol-5-yl]oxy-1-(4-tert-butylphenyl)propan-2-yl]-2,2-dimethyl-propanamide]",6.6
6,"COCC(=O)N[C@@H](C)[C@H](Oc1ccc2c(cnn2-c2ccc(F)cc2)c1)c1cccc(OC)c1 [Example 54, N-[(1R,2S)-1-[1-(4-fluorophenyl)indazol-5-yl]oxy-1-(3-methoxyphenyl)propan-2-yl]-2-methoxy-acetamide]",2.9
7,"CCC(=O)N[C@@H](C)[C@H](Oc1ccc2c(cnn2-c2ccc(F)cc2)c1)c1ccc(C(F)(F)F)cc1 [Example 61, N-[(1R,2S)-1-[1-(4-fluorophenyl)indazol-5-yl]oxy-1-[4-(trifluoromethyl)phenyl]propan-2-yl]propanamide]",3.3
8,"Cc1cc(F)ccc1[C@@H](Oc1ccc2c(cnn2-c2ccc(F)cc2)c1)[C@H](C)NC(=O)C(F)(F)F [Example 156, 2,2,2-trifluoro-N-[(1R,2S)-1-(4-fluoro-2-methyl-phenyl)-1-[1-(4-fluorophenyl)indazol-5-yl]oxy-propan-2-yl]acetamide]",4.2
9,"COc1cccc([C@@H](Oc2ccc3c(cnn3-c3ccc(F)cc3)c2)[C@H](C)NC(=O)c2ccsc2)c1 [Example 134, N-[(1R,2S)-1-[1-(4-fluorophenyl)indazol-5-yl]oxy-1-(3-methoxyphenyl)propan-2-yl]thiophene-3-carboxamide]",3.6
10,"CC[C@H](NC(=O)C(C)(C)C)[C@H](Oc1ccc2c(cnn2-c2ccc(F)cc2)c1)c1ccccc1 [Example 96, N-((1R,2S)-1-(1-(4-fluorophenyl)-1H-indazol-5-yloxy)-1-phenylbutan-2-yl)pivalamide]",3.5
11,"C[C@H](NC(=O)C(=O)O)[C@H](Oc1ccc2c(cnn2-c2ccc(F)cc2)c1)c1ccccc1 [Example 36, [(1R,2S)-1-[1-(4-fluorophenyl)indazol-5-yl]oxy-1-phenyl-propan-2-yl]carbamoylformic acid]",10
12,"COC[C@H](NC(=O)c1ccco1)[C@H](Oc1ccc2c(cnn2-c2ccc(F)cc2)c1)c1cccc(F)c1 [Example 112, N-[(1S)-(2R)-(3-Fluorophenyl)-2-{[1-(4-fluorophenyl)-1H-indazol-5-yl]oxy}-1-(methoxymethyl)ethyl]furan-2-carboxamide]",21
13,"C[C@H](NC(=O)CF)[C@H](Oc1ccc2c(cnn2-c2ccc(F)cc2)c1)c1ccccc1 [Example 45, 2-Fluoro-N-[(1R,2S)-1-[1-(4-fluorophenyl)indazol-5-yl]oxy-1-phenyl-propan-2-yl]acetamide]",2.6
14,"COC(=O)c1ccc(-n2ncc3cc(O[C@H](c4ccccc4)[C@H](C)NC(=O)c4ccco4)ccc32)cc1 [Example 116, Methyl 4-(5-{(1R,2S)-2-[(2-furylcarbonyl)amino]-1-phenylpropoxy}-1H-indazol-1-yl)benzoate]",7.7

# Other lines, results leading:
row,IC50 [nM],Compound
1,3,"Cc1ccc([C@@H](Oc2ccc3c(cnn3-c3ccc(F)cc3)c2)[C@H](C)NC(=O)C2(C)CC2)cc1C [Example 211, N-[(1R,2S)-1-(3,4-dimethylphenyl)-1-[1-(4-fluorophenyl)indazol-5-yl]oxy-propan-2-yl]-1-methyl-cyclopropane-1-carboxamide]"
2,4.4,"COCC(=O)N[C@@H](C)[C@H](Oc1ccc2c(cnn2-c2ccc(F)cc2)c1)c1ccc(F)c(F)c1 [Example 258, N-[(1R,2S)-1-(3,4-difluorophenyl)-1-[1-(4-fluorophenyl)indazol-5-yl]oxy-propan-2-yl]-2-methoxy-acetamide]"
3,5.7,"COc1cccc([C@@H](Oc2ccc3c(cnn3-c3ccc(F)cc3)c2)[C@H](C)NC(=O)c2sccc2OC)c1 [Example 292, N-[(1R,2S)-1-[1-(4-fluorophenyl)indazol-5-yl]oxy-1-(3-methoxyphenyl)propan-2-yl]-3-methoxy-thiophene-2-carboxamide]"
4,3.1,"COc1ccc(F)cc1[C@@H](Oc1ccc2c(cnn2-c2ccc(F)cc2)c1)[C@H](C)NC(=O)C1(C)CC1 (stereo in doubt) [Example 268, N-[(1R,2S)-1-(5-fluoro-2-methoxy-phenyl)-1-[1-(4-fluorophenyl)indazol-5-yl]oxy-propan-2-yl]-1-methyl-cyclopropane-1-carboxamide]"
5,6.1,"Cc1cc(F)ccc1[C@@H](Oc1ccc2c(cnn2-c2ccc(F)cc2)c1)[C@H](C)NC(=O)C(C)(F)F [Example 233, 2,2-difluoro-N-[(1R,2S)-1-(4-fluoro-2-methyl-phenyl)-1-[1-(4-fluorophenyl)indazol-5-yl]oxy-propan-2-yl]propanamide]"
6,3.8,"COc1cccc([C@@H](Oc2ccc3c(cnn3-c3ccc(F)cc3)c2)[C@H](C)NC(=O)c2cc[nH]n2)c1 [Example 279, N-[(1R,2S)-1-[1-(4-fluorophenyl)indazol-5-yl]oxy-1-(3-methoxyphenyl)propan-2-yl]-1H-pyrazole-3-carboxamide]"
7,5.7,"COc1cccc([C@@H](Oc2ccc3c(cnn3-c3ccc(F)cc3)c2)[C@H](C)NC(=O)c2ccc(Cl)s2)c1 [Example 295, 5-chloro-N-[(1R,2S)-1-[1-(4-fluorophenyl)indazol-5-yl]oxy-1-(3-methoxyphenyl)propan-2-yl]thiophene-2-carboxamide]"
8,3.7,"Cc1cc(C)c([C@@H](Oc2ccc3c(cnn3-c3ccc(F)cc3)c2)[C@H](C)NC(=O)C(C)(C)C)cc1C (stereo in doubt) [Example 267, N-[(1R,2S)-1-[1-(4-fluorophenyl)indazol-5-yl]oxy-1-(2,4,5-trimethylphenyl)propan-2-yl]-2,2-dimethyl-propanamide]"
9,8,"C[C@H](NC(=O)C(C)(F)F)[C@H](Oc1ccc2c(cnn2-c2ccc(F)cc2)c1)c1ccc(F)c(F)c1 [Example 228, N-[(1R,2S)-1-(3,4-difluorophenyl)-1-[1-(4-fluorophenyl)indazol-5-yl]oxy-propan-2-yl]-2,2-difluoro-propanamide]"
